Where two headings read alike, the source gives them in different places.
What was measured:
BRD4 BD1 = BRD4 BD1 (Homo sapiens, UniProt O60885); experiment: AlphaScreen assay, BRD4 BD1 inhibition; type: binding; conditions: for inhibitory activity against BD1 (in words): measured range 0.0096 to 32 μM
Experimental: To find the hit molecules for BRD4 bromodomain inhibitor discovery, we performed an in vitro AlphaScreen assay with in-house chemical libraries.
The AlphaScreen assay was described previously and performed according to the manufacturer’s protocol (PerkinElmer, USA). The reaction buffer was 50 mM HEPES pH 7.4, 100 mM NaCl, 0.1% BSA, and 0.05% CHAPS.

BRD4 BD2 = BRD4 BD2 (Homo sapiens, UniProt O60885); experiment: AlphaScreen assay, BRD4 BD2 inhibition; conditions: for inhibitory activity for BD2 (in words): AlphaScreen
[1] = Supplementary Table S2, mean of three independent measurements, 8-point titration from 0.0096 to 32 μM, read-out: IC50 (μM) for BD1
[2] = AlphaScreen, N = 3, standard deviations in parentheses, read-out: IC50 (BD1)

SMILES: Cc1nnc2ccc(N3CCOCC3)nn12 [Compound 16]
- inhibitory activity against BD1 (in words) (BRD4 BD1; AlphaScreen): no inhibitory efficacy
- IC50 (BRD4 BD1; [1]): > 32 µM

SMILES: Cc1nnc2ccc(NCCO)nn12 [Compound 31]
- IC50 (BRD4 BD1; [1]): > 32 µM

SMILES: CC(C)CCNC(=O)C1CCN(c2ccc3nnc(C(C)C)n3n2)CC1 [Compound 25, N-(3-methylbutyl)-1-[3-(propan-2-yl)[1,2,4]triazolo[4,3-b]pyridazin-6-yl]piperidine-4-carboxamide]
- IC50 (BRD4 BD1; [1]): > 32 µM

SMILES: Cc1nnc2ccc(NCCC(=O)Nc3ccccc3)nn12 [Compound 38]
- IC50 (BRD4 BD1; [1]): > 32 µM

SMILES: CCOC(=O)CCNc1ccc2nnc(C)n2n1 [Compound 33]
- inhibitory activity against BD1 (in words) (BRD4 BD1; AlphaScreen): showed inhibitory activity
- IC50 (BRD4 BD1; [1]): 7.51 ± 0.63 µM

SMILES: Cc1nnc2ccc(NCCNC(=O)OC(C)(C)C)nn12 [Compound 32]
- IC50 (BRD4 BD1; [1]): > 32 µM

SMILES: Cc1nnc2ccc(NCCNC(=O)Nc3ccccc3)nn12 [Compound 40]
- IC50 (BRD4 BD1; [1]): > 32 µM

SMILES: COc1ccc(CNc2ccc3nnc(C)n3n2)cc1 [Compound 37]
- IC50 (BRD4 BD1; [1]): 8.91 ± 0.94 µM

SMILES: FC(F)(F)c1nnc2ccc(NCCc3c[nH]c4ccccc34)nn12 [Compound 6, N-[2-(1H-indol-3-yl)ethyl)-3-(trifluoromethyl)-[1,2,4]triazolo[4,3-b]pyridazin-6-amine]
- inhibitory activity against BD1 (in words) (BRD4 BD1; AlphaScreen): did not much improved the IC50 value
- IC50 (BRD4 BD1; [2]): 9.6 µM
- IC50 (BRD4 BD2): 11.3 µM
- inhibitory activity for BD2 (in words) (BRD4 BD2): have inhibitory activities for BD2

SMILES: Cc1nnc2ccc(NCCNC(=O)c3ccccc3)nn12 [Compound 39]
- IC50 (BRD4 BD1; [1]): > 32 µM

SMILES: Cc1nnc2ccc(N3CCC4(CC3)CN(C(=O)OC(C)(C)C)C4)nn12 [Compound 21]
- inhibitory activity against BD1 (in words) (BRD4 BD1; AlphaScreen): exhibited inhibitory activities
- IC50 (BRD4 BD1; [1]): 6.21 ± 1.2 µM

SMILES: Cc1nnc2ccc(N3CCC4(CCN(C(=O)OC(C)(C)C)CC4)CC3)nn12 [Compound 19]
- inhibitory activity against BD1 (in words) (BRD4 BD1; AlphaScreen): exhibited inhibitory activities
- IC50 (BRD4 BD1; [1]): 9.22 ± 1.6 µM

SMILES: Cc1nnc2ccc(N3CCCCC3)nn12 [Compound 13]
- inhibitory activity against BD1 (in words) (BRD4 BD1; AlphaScreen): no blocking activities
- IC50 (BRD4 BD1; [1]): > 32 µM

SMILES: CC1CCN(c2ccc3nnc(CNS(=O)(=O)N(C)C)n3n2)CC1 [Compound 15]
- inhibitory activity against BD1 (in words) (BRD4 BD1; AlphaScreen): no inhibitory efficacy
- IC50 (BRD4 BD1; [1]): > 32 µM

SMILES: Cc1nnc2ccc(NCc3ccccc3)nn12 [Compound 35]
- IC50 (BRD4 BD1; [1]): 10.2 ± 1.29 µM

SMILES: Cc1nnc2ccc(NCCc3c[nH]c4ccc(F)cc34)nn12 [Compound 7, N-[2-(5-fluoro-1H-indol-3-yl)ethyl]-3-methyl-[1,2,4]triazolo[4,3-b]pyridazin-6-amine]
- inhibitory activity against BD1 (in words) (BRD4 BD1; AlphaScreen): nearly same blocking efficacy
- IC50 (BRD4 BD1; [1]): 29 ± 5.7 µM

SMILES: CC(C)c1nnc2ccc(N3CCC(C(=O)O)CC3)nn12 [Compound 24, 1-(3-Isopropyl-[1,2,4]triazolo[4,3-b]pyridazin-6-yl)piperidine-4-carboxylic acid]
- IC50 (BRD4 BD1; [1]): > 32 µM

SMILES: FC(F)(F)c1nnc2ccc(NCC(c3ccccc3)c3c[nH]c4ccccc34)nn12 (stereo not drawn) [Compound 9, N-[2-(1H-indol-3-yl)-2-phenylethyl]-3-(trifluoromethyl)-[1,2,4]triazolo[4,3-b]pyridazin-6-amine]
- inhibitory activity against BD1 (in words) (BRD4 BD1; AlphaScreen): increased the IC50 value by only twofold compared to that of 6
- IC50 (BRD4 BD1; [1]): 23.4 ± 8.3 µM

SMILES: COc1ccc2[nH]cc(CCNc3ccc4nnc(C)n4n3)c2c1 [Compound 8, N-[2-(5-methoxy-1H-indol-3-yl)ethyl)-3-methyl-[1,2,4]triazolo[4,3-b]pyridazin-6-amine]
- inhibitory activity against BD1 (in words) (BRD4 BD1; AlphaScreen): nearly same blocking efficacy
- IC50 (BRD4 BD1; [1]): 25.7 ± 11.1 µM

SMILES: CCc1nnc2ccc(NC(CO)Cc3c[nH]c4ccccc34)nn12 (stereo not drawn) [Compound 12, 2-[(3-ethyl-[1,2,4]triazolo[4,3-b]pyridazin-6-yl)amino]-3-(1H-indol-3-yl)propan-1-ol]
- inhibitory activity against BD1 (in words) (BRD4 BD1; AlphaScreen): decreased blocking efficiency compared to that of 5
- IC50 (BRD4 BD1; [2]): 25.2 µM
- IC50 (BRD4 BD2): 36.5 µM
- inhibitory activity for BD2 (in words) (BRD4 BD2): have inhibitory activities for BD2

SMILES: CC(C)N1CCN(c2ccc3nnc(C4CCC4)n3n2)CC1 [Compound 27, 3-cyclobutyl-6-(4-isopropylpiperazino)[1,2,4]triazolo[4,3-b]pyridazine]
- IC50 (BRD4 BD1; [1]): > 32 µM

SMILES: Cc1nnc2ccc(N3CCC4(CC3)OCCO4)nn12 [Compound 20]
- IC50 (BRD4 BD1; [1]): > 32 µM

SMILES: Cc1nnc2ccc(N3CCC4(CCNCC4)CC3)nn12 [Compound 22]
- IC50 (BRD4 BD1; [1]): > 32 µM

SMILES: Fc1cc2[nH]cc(CCNc3ccc4nnc(C5CC5)n4n3)c2cc1Cl [Compound 10, N-[2-(5-chloro-6-fluoro-1H-indol-3-yl)ethyl]-3-cyclopropyl-[1,2,4]triazolo[4,3-b]pyridazin-6-amine]
- inhibitory activity against BD1 (in words) (BRD4 BD1; AlphaScreen): no inhibitory efficiency in the measured range
- IC50 (BRD4 BD1; [1]): > 32 µM

SMILES: Cc1nnc2ccc(N3CCSCC3)nn12 [Compound 17]
- inhibitory activity against BD1 (in words) (BRD4 BD1; AlphaScreen): no inhibitory efficacy
- IC50 (BRD4 BD1; [1]): > 32 µM

SMILES: Cc1nnc2ccc(N3CCC4(CC3)CNC4)nn12 [Compound 23]
- IC50 (BRD4 BD1; [1]): > 32 µM

SMILES: CCC(=O)NCCNc1ccc2nnc(C)n2n1 [Compound 34]
- IC50 (BRD4 BD1; [1]): > 32 µM

SMILES: Cc1nnc2ccc(N3C4CCC3COC4)nn12 [Compound 18]
- inhibitory activity against BD1 (in words) (BRD4 BD1; AlphaScreen): no inhibitory efficacy
- IC50 (BRD4 BD1; [1]): > 32 µM

SMILES: CCS(=O)(=O)NCCNc1ccc2nnc(C)n2n1 [Compound 29]
- IC50 (BRD4 BD1; [1]): > 32 µM

SMILES: CC(C)c1nnc2ccc(N3CCC(C(=O)NC4CC4)CC3)nn12 [Compound 26, N-cyclopropyl-1-[3-(propan-2-yl)[1,2,4]triazolo[4,3-b]pyridazin-6-yl]piperidine-4-carboxamide]
- IC50 (BRD4 BD1; [1]): > 32 µM

SMILES: Cc1nnc2ccc(NCCC(=O)O)nn12 [Compound 28]
- IC50 (BRD4 BD1; [1]): > 32 µM

SMILES: Cc1nnc2ccc(NCCc3c[nH]c4ccccc34)nn12 [Compound 5]
- IC50 (BRD4 BD1; [2]): 17.1 µM
- IC50 (BRD4 BD2): 23.2 µM
- inhibitory activity for BD2 (in words) (BRD4 BD2): have inhibitory activities for BD2

SMILES: Fc1ccc2[nH]c3c(c2c1)CCN(c1ccc2nnc(-c4ccccc4F)n2n1)C3 [Compound 11, 6-Fluoro-2-[3-(2-fluorophenyl)-[1,2,4]triazolo[4,3-b]pyridazin-6-yl]-1,3,4,9-tetrahydropyrido[3,4-b]indole]
- inhibitory activity against BD1 (in words) (BRD4 BD1; AlphaScreen): no inhibition
- IC50 (BRD4 BD1; [1]): > 32 µM

Source: publication PMC10319850, “Crystal structure of [1,2,4] triazolo[4,3- b ]pyridazine derivatives as BRD4 bromodomain inhibitors and structure–activity relationship study” (Scientific Reports, 2023)
